The source of these data is patent US7754880B2, “Uracils having a herbicidal activity” (Isagro Ricerca S.r.l., priority 2002, dated 2010).

`Cn1c(C(F)(F)F)cc(=O)n(-c2ccc(Cl)c(-c3nc4ccccc4s3)c2)c1=O` [Compound No 113, 3-[3-(1,3-benzothiazol-2-yl)-4-chlorophenyl]-1-methyl-6-(trifluoromethyl)-2,4(1H,3H)-pyrimidinedione] returned a melting point of 189 °C. Compound `CC(C)n1nnc(-c2cc(-n3c(=O)cc(C(F)(F)F)n(C)c3=O)ccc2Cl)n1` [Compound No 134, 3-[4-chloro-3-(2-isopropyl-2H-tetrazol-5-yl)phenyl]-1-methyl-6-(trifluoromethyl)-2,4(1H,3H)-pyrimidinedione] yielded a melting point of 147 °C.

`Cn1nnnc1-c1cc(-n2c(=O)cc(C(F)(F)F)n(C)c2=O)ccc1Cl` [Compound No 14, 3-[4-chloro-3-(1-methyl-1H-tetrazol-5-yl)phenyl]-1-methyl-6-(trifluoromethyl)-2,4(1H,3H)-pyrimidinedione]: the melting point stood at 185 °C. `CCOCn1nnc(-c2cc(-n3c(=O)cc(C(F)(F)F)n(C)c3=O)ccc2Cl)n1` [Compound No 103, 3-{4-chloro-3-[2-(ethoxymethyl)-2H-tetrazol-5-yl]phenyl}-1-methyl-6-(trifluoromethyl)-2,4(1H,3H)-pyrimidinedione] returned a melting point of 140 °C. As for `Cn1c(C(F)(F)F)cc(=O)n(-c2cc(OCc3nnn[nH]3)c(Cl)cc2F)c1=O` [Compound No 7, 3-[4-chloro-2-fluoro-5-(tetrazol-5-ylmethoxy)phenyl]-1-methyl-6-(trifluoromethyl)-2,4(1H,3H)-pyrimidinedione], the figure is 82 °C; as for `CCn1nnnc1-c1cc(-n2c(=O)cc(C(F)(F)F)n(C)c2=O)ccc1Cl` [Compound No 16, 3-[4-chloro-3-(1-ethyl-1H-tetrazol-5-yl)phenyl]-1-methyl-6-(trifluoromethyl)-2,4(1H,3H)-pyrimidinedione], 202 °C; as for `COC(=O)Cn1nnnc1COc1cc(-n2c(=O)cc(C(F)(F)F)n(C)c2=O)c(F)cc1Cl` [Compound No 10, methyl [5-({2-chloro-4-fluoro-5-[1,2,3,6-tetrahydro-3-methyl-2,6-dioxo-4-(trifluoromethyl)pyrimidin-1-yl]phenoxy}methyl)-1H-tetrazol-1-yl]acetate], 243 °C. Compound `CCn1nnnc1COc1cc(-n2c(=O)cc(C(F)(F)F)n(C)c2=O)c(F)cc1Cl` [Compound No 9, 3-{4-chloro-2-fluoro-5-[(1-ethyl-1H-tetrazol-5-yl)methoxy]phenyl}-1-methyl-6-(trifluoromethyl)-2,4(1H,3H)-pyrimidinedione] showed a melting point of 60 °C.

As for `Cn1c(C(F)(F)F)cc(=O)n(-c2ccc(Cl)c(-c3nnn(CC(N)=O)n3)c2)c1=O` [Compound No 126, 2-(5-{2-chloro-5-[1,2,3,6-tetrahydro-3-methyl-2,6-dioxo-4-(trifluoromethyl)pyrimidin-1-yl]phenyl}-2H-tetrazol-2-yl)acetamide], the melting point was found to be 200 °C. Compound `CCOC(=O)/C=C(\COc1cc(-n2c(=O)cc(C(F)(F)F)n(C)c2=O)c(Cl)cc1Cl)OC` [Compound No 99, ethyl (2E)-4-{2,4-dichloro-5-[1,2,3,6-tetrahydro-3-methyl-2,6-dioxo-4-(trifluoromethyl)pyrimidin-1-yl]phenoxy}-3-methoxybut-2-enoate] came in with a melting point of 128 °C.

In turn, `COC(=O)Cn1nnc(COc2cc(-n3c(=O)cc(C(F)(F)F)n(C)c3=O)c(F)cc2Cl)n1` [Compound No 11, methyl [5-({2-chloro-4-fluoro-5-[1,2,3,6-tetrahydro-3-methyl-2,6-dioxo-4-(trifluoromethyl)pyrimidin-1-yl]phenoxy}methyl)-2H-tetrazol-2-yl]acetate] came in with a melting point of 65 °C.

In turn, `Cn1c(C(F)(F)F)cc(=O)n(-c2cc(OCc3cc(C(C)(C)C)no3)c(Cl)cc2F)c1=O` [Compound No 132, 3-{5-[(3-tert-butylisoxazol-5-yl)methoxy]-4-chloro-2-fluorophenyl}-1-methyl-6-(trifluoromethyl)-2,4(1H,3H)-pyrimidinedione] had a melting point of 142 °C.

`CC(C)Cc1csc(-c2cc(-n3c(=O)cc(C(F)(F)F)n(C)c3=O)c(Cl)cc2Cl)n1` [Compound No 129, 3-[2,4-dichloro-5-(4-isobutyl-1,3-thiazol-2-yl)phenyl]-1-methyl-6-(trifluoromethyl) 2,4(1H,3H)-pyrimidinedione] yielded a melting point of 167 °C. As to `CCn1nnc(COc2cc(-n3c(=O)cc(C(F)(F)F)n(C)c3=O)c(F)cc2Cl)n1` [Compound No 8, 3-{4-chloro-2-fluoro-5-[(2-ethyl-2H-tetrazol-5-yl)methoxy]phenyl}-1-methyl-6-(trifluoromethyl)-2,4(1H,3H)-pyrimidinedione], the melting point was 126 °C. `COCn1nnc(-c2cc(-n3c(=O)cc(C(F)(F)F)n(C)c3=O)ccc2Cl)n1` [Compound No 101, 3-{4-chloro-3-[2-(methoxymethyl)-2H-tetrazol-5-yl]phenyl}-1-methyl-6-(trifluoromethyl)-2,4(1H,3H)-pyrimidinedione] gave a melting point of 80 °C.

For `Cn1nnc(COc2cc(-n3c(=O)cc(C(F)(F)F)n(C)c3=O)c(F)cc2Cl)n1` [Compound No 42, 3-{4-chloro-2-fluoro-5-[(2-methyl-2H-tetrazol-5-yl)methoxy]phenyl}-1-methyl-6-(trifluoromethyl)-2,4(1H,3H)-pyrimidinedione], the melting point came to 167 °C. Take `COC(=O)Cn1nnc(-c2cc(-n3c(=O)cc(C(F)(F)F)n(C)c3=O)ccc2Cl)n1` [Compound No 17, methyl (5-{2-chloro-5-[1,2,3,6-tetrahydro-3-methyl-2,6-dioxo-4-(trifluoromethyl)pyrimidin-1-yl]phenyl}-2H-tetrazol-2-yl)acetate]: the melting point turned out to be 172 °C. As for `Cn1c(C(F)(F)F)cc(=O)n(-c2cc(-c3nc4ccccc4s3)c(Cl)cc2Cl)c1=O` [Compound No 123, 3-[5-(1,3-benzothiazol-2-yl)-2,4-dichlorophenyl]-1-methyl-6-(trifluoromethyl)-2,4(1H,3H)-pyrimidinedione], the melting point worked out at 195 °C. As for `Cc1nc(COc2cc(-n3c(=O)cc(C(F)(F)F)n(C)c3=O)c(Cl)cc2Cl)no1` [Compound No 112, 3-{2,4-dichloro-5-[(5-methyl-1,2,4-oxadiazol-3-yl)methoxy]phenyl}-1-methyl-6-(trifluoromethyl)-2,4(1H,3H)-pyrimidinedione], the figure is 167 °C; as for `Cn1c(C(F)(F)F)cc(=O)n(-c2cc(-c3nc4ccccc4s3)c(Cl)cc2F)c1=O` [Compound No 119, 3-[5-(1,3-benzothiazol-2-yl)-4-chloro-2-fluorophenyl]-1-methyl-6-(trifluoromethyl)-2,4(1H,3H)-pyrimidinedione], 211 °C.

In turn, `Cc1cc(COc2cc(-n3c(=O)cc(C(F)(F)F)n(C)c3=O)c(F)cc2Cl)on1` [Compound No 107, 3-{4-chloro-2-fluoro-5-[(3-methylisoxazol-5-yl)methoxy]phenyl}-1-methyl-6-(trifluoromethyl)-2,4(1H,3H)-pyrimidinedione] yielded a melting point of 154 °C. On to `CC(C)c1cc(COc2cc(-n3c(=O)cc(C(F)(F)F)n(C)c3=O)c(F)cc2Cl)on1` [Compound No 133, 3-{4-chloro-2-fluoro-5-[(3-isopropylisoxazol-5-yl)methoxy]phenyl}-1-methyl-6-(trifluoromethyl)-2,4(1H,3H)-pyrimidinedione], for which the melting point amounted to 128 °C.

Regarding `CN(C)C(=O)Cn1nnc(-c2cc(-n3c(=O)cc(C(F)(F)F)n(C)c3=O)ccc2Cl)n1` [Compound No 125, 2-(5-{2-chloro-5-[1,2,3,6-tetrahydro-3-methyl-2,6-dioxo-4-(trifluoromethyl)pyrimidin-1-yl]phenyl}-2H-tetrazol-2-yl)-N,N-dimethylacetamide], the melting point came out at 208 °C. In turn, `Cn1c(C(F)(F)F)cc(=O)n(-c2ccc(Cl)c(-c3nc4ccccc4o3)c2)c1=O` [Compound No 114, 3-[3-(1,3-benzoxazol-2-yl)-4-chlorophenyl]-1-methyl-6-(trifluoromethyl)-2,4(1H,3H)-pyrimidinedione] returned a melting point of 183 °C. The compound `CCCCn1nnc(-c2cc(-n3c(=O)cc(C(F)(F)F)n(C)c3=O)ccc2Cl)n1` [Compound No 157, 3-[3-(2-butyl-2H-tetrazol-5-yl)-4-chlorophenyl]-1-methyl-6-(trifluoromethyl)-2,4(1H,3H)-pyrimidinedione] had a melting point of 108 °C. For `COC(=O)/C=C(\COc1cc(-n2c(=O)cc(C(F)(F)F)n(C)c2=O)c(Cl)cc1Cl)OC` [Compound No 3, methyl (2E)-4-{2,4-dichloro-5-[1,2,3,6-tetrahydro-3-methyl-2,6-dioxo-4-(trifluoromethyl)pyrimidin-1-yl]phenoxy}-3-methoxybut-2-enoate], the melting point turned out to be 116 °C. For the compound `COC(=O)Cn1nnnc1-c1cc(-n2c(=O)cc(C(F)(F)F)n(C)c2=O)ccc1Cl` [Compound No 18, methyl (5-{2-chloro-5-[1,2,3,6-tetrahydro-3-methyl-2,6-dioxo-4-(trifluoromethyl)pyrimidin-1-yl]phenyl}-1H-tetrazol-1-yl)acetate], the melting point stood at 130 °C. As for `Cc1cc(COc2cc(-n3c(=O)cc(C(F)(F)F)n(C)c3=O)c(Cl)cc2Cl)on1` [Compound No 108, 3-{2,4-dichloro-5-[(3-methylisoxazol-5-yl)methoxy]phenyl}-1-methyl-6-(trifluoromethyl)-2,4(1H,3H)-pyrimidinedione], the figure is 185 °C. Take `Cn1c(C(F)(F)F)cc(=O)n(-c2cc(OCc3ncon3)c(Cl)cc2F)c1=O` [Compound No 117, 3-[4-chloro-2-fluoro-5-(1,2,4-oxadiazol-3-ylmethoxy)phenyl]-1-methyl-6-(trifluoromethyl)-2,4(1H,3H)-pyrimidinedione]: the melting point was determined as 122 °C. For the compound `CCn1nnc(-c2cc(-n3c(=O)cc(C(F)(F)F)n(C)c3=O)ccc2Cl)n1` [Compound No 15, 3-[4-chloro-3-(2-ethyl-2H-tetrazol-5-yl)phenyl]-1-methyl-6-(trifluoromethyl)-2,4(1H,3H)-pyrimidinedione], the melting point is 136 °C.
